Test results published in patent US20230183239A1, “ECTONUCLEOTIDE PYROPHOSPHATASE-PHOSPHODIESTERASE 1 (ENPP-1) INHIBITORS AND USES THEREOF” (AbbVie Inc., priority 2017, published 2023).
Where two headings read alike, the source gives them in different places.

Tests used:
Assay type in all cases: biochemical
[1] = target: T1, ENPP1 (Homo sapiens, UniProt P22413); experiment: ENPP1 enzyme assay with TMP-pNP substrate; set-up: purchased R&D Systems; conditions: for Ki: Ki from IC50 by Cheng-Prusoff; for inhibition at 10 µM: read-out: TMP-pNP: % inhibition at 10 uM, 10 uM compound
T1 sequence (P22413 1-925): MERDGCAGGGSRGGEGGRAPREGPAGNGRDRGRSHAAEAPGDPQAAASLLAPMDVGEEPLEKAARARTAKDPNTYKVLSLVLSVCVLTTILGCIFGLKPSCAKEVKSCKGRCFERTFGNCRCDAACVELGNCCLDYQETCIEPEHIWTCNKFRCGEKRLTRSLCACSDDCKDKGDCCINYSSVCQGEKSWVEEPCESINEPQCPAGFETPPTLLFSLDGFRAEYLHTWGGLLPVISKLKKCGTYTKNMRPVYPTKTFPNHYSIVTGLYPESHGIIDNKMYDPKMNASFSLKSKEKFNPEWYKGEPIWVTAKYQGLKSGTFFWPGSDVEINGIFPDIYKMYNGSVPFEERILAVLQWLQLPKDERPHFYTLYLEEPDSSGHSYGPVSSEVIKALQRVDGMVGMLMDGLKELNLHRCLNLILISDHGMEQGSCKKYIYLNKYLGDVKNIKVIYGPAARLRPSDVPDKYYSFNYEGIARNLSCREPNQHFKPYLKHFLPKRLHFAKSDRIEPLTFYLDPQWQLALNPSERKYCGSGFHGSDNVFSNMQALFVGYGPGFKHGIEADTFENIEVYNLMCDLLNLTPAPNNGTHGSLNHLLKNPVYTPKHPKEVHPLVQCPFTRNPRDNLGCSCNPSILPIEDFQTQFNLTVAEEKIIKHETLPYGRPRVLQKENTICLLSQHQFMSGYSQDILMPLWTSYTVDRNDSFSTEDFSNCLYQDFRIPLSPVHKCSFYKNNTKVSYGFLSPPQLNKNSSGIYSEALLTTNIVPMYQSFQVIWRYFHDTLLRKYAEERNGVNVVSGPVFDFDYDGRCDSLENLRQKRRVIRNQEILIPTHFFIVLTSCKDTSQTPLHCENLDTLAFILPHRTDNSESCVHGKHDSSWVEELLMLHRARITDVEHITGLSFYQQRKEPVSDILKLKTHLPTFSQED
Protocol: Example B2: ENPP1 Enzyme Assay With TMP-pNP Substrate
Ectonucleotide pyrophosphatase/phosphodiesterase 1 (ENPP-1) is a transmembrane glycoprotein that hydrolyzes nucleotides and nucleotide derivatives with the formation of nucleotide-5’-monophosphates. ENPP-1 hydrolyzes thymidine 5’monophosphate p-nitrophenyl ester (TMP-pNP) to nucleotide-5’-monophosphate and p-nitrophenol, which is a chromogenic product. The amount of p-nitrophenol product formed is measured using its absorbance at 405 nm, which is directly proportional to enzyme activity. Different concentrations of inhibitors are pre-incubated with 15 ng/well of human ENPP-1 enzyme (R&D Systems) for 15 minutes at 37° C. The reaction is initiated by adding 200 µM TMP-pNP and incubating for 10 minutes at 37° C. The final assay reaction mixture contains a buffer of 50 mM Tris pH 8.0, 250 mM NaCl, 0.5 mM CaCl2, 1 µM ZnCl2 and 1% DMSO. The amount of product formed is measured directly in a Tecan® spectrophotometer. Maximal activity control samples (containing enzyme, substrate, and buffer in the absence of ENPP1 inhibitors: MAX) and background control samples (containing enzyme, substrate, and buffer plus a fully inhibitory concentration (3 µM) of the reference ENPP1 Inhibitor, Example 333: MIN) are simultaneously evaluated in order to calculate the percent inhibition at each compound concentration as follows:
The IC50 values for percent inhibition versus compound concentration are determined by fitting the inhibition curves (percent inhibition versus inhibitor concentration) using a four-parameter variable slope model in GraphPad Prism® software. Ki values are derived from the IC50 values using the Cheng-Prusoff equation: […]

[2] = target: T1, ENPP1; experiment: ENPP1 enzyme assay with AMP-pNP substrate (hydrolysis of ATP analog)
Method in brief: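 Human recombinant ENPP1 (60 ng/well) with 300 µM AMP-pNP in 50 mM Tris-HCl pH 8.5, 250 mM NaCl, 0.5 mM CaCl2, 1 µM ZnCl2, 0.1% DMSO, 20 min at 37 °C.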

[3] = target: T1, ENPP1; experiment: Indirect quantitation of 2',3'-cGAMP hydrolysis (AMP-Glo Assay kit)
[4] = target: T1, ENPP1; experiment: ENPP1 enzyme assay with cGAMP substrate (AMP-Glo); set-up: purchased R&D Systems; conditions: for inhibition at 1 µM: read-out: cGAMP: % Inhibition at 1 µM; for inhibition at 10 µM: 10 µM compound
Description: Example B1: ENPP1 Enzyme Assay With cGAMP Substrate
Ectonucleotide pyrophosphatase/phosphodiesterase 1 (ENPP-1) is a transmembrane glycoprotein that hydrolyzes nucleotides and nucleotide derivatives with the formation of nucleoside-5’-monophosphates. […] The 5’-AMP formed from the reaction is detected using the AMP-Glo® Kit (Promega). The assay kit contains two reagents. The first reagent terminates the enzymatic reaction, removes ATP (using adenylyl cyclase), and converts 5’-AMP produced into ADP (using polyphosphate: AMP phosphotransferase). The second reagent converts ADP to ATP (using adenylate kinase) and generates light from ATP using the luciferin/luciferase reaction.
Different concentrations of ENPP1 inhibitors are pre-incubated with 5 ng/well of human ENPP-1 enzyme (R&D Systems) for 15 minutes at 37° C. The reaction is initiated by adding 20 µM 2’3’-cGAMP and incubating for 30 minutes at 37° C. The final assay reaction mixture contains a buffer of 50 mM Tris pH 8.0, 250 mM NaCl, 0.5 mM CaCl2, 1 µM ZnCl2 and 1% DMSO. At the end of the incubation, the reaction is stopped by adding 12 µl of AMP-Glo reagent-1 and mixing the reaction uniformly for 5 minutes, followed by incubation at room temperature for one hour. Then 25 µl of AMP Glo reagent-2 is added to the reaction, mixed uniformly with a pipette, and incubated at room temperature for one hour to convert the ADP formed from reagent-1 to ATP and light. The generated light is measured in a Perkin Elmer Victor® instrument.
The IC50 values for percent inhibition versus compound concentration are determined by fitting the inhibition curves using a four-parameter variable slope model in GraphPad Prism® software. Ki values are derived from the IC50 values using the Cheng-Prusoff equation: […]

[5] = target: T1, ENPP1; experiment: Substrate selectivity ratio, inhibition of cGAMP hydrolysis versus ATP hydrolysis; conditions: ratio Ki AMP-pNP / Ki cGAMP
Protocol: The selectivity ratios for inhibition of cGAMP hydrolysis versus ATP hydrolysis were then calculated as follows: […]

[6] = AMP-pNP substrate (ATP analog), Ki from IC50 by Cheng-Prusoff, read-out: ENPP1 Inhibition _AMP-pNP: Ki
[7] = cGAMP substrate, Ki from IC50 by Cheng-Prusoff, read-out: ENPP1 Inhibition -cGAMP: Ki
[8] = cGAMP substrate, Ki from IC50 by Cheng-Prusoff, read-out: cGAMP: Ki

| Compound | Ki [1] | Ki [2, 6] | Ki [3, 7] | inhibition at 1 µM ([4]; 1 µM compound, cGAMP substrate) | Ki [4, 8] | Substrate Selectivity: Ki_AMP-pNP/Ki_cGAMP [5] | inhibition at 1 µM [4] | inhibition at 10 µM ([4]; cGAMP substrate) | inhibition at 10 µM [1] | Ki [2] | Ki [3] | Ki [4] |
| --- | --- | --- | --- | --- | --- | --- | --- | --- | --- | --- | --- | --- |
| COc1cc2nccc(N3CCC(CCNS(N)(=O)=O)CC3)c2cc1OC [Example 43, N-(2-(1-(6,7-dimethoxyquinolin-4-yl)piperidin-4-yl)ethyl)sulfamide] | < 100 nM | 100 to 1000 nM | < 100 nM | > 75% | < 100 nM | 22.9 | – | – | – | – | – | – |
| COc1cc2nc(-c3ccncc3)nc(N3CCC(CCNS(N)(=O)=O)CC3)c2cc1OC [Example 6, N-(2-(1-(6,7-dimethoxy-2-(pyridin-4-yl)quinazolin-4-yl)piperidin-4-yl)ethyl)sulfamide] | > 1000 nM | – | 100 to 1000 nM | – | 100 to 1000 nM | – | 25 to 50% | – | – | – | – | – |
| NS(=O)(=O)NCCC1CCN(c2ncnc3ccccc23)CC1 [Example 35, N-(2-(1-(quinazolin-4-yl)piperidin-4-yl)ethyl)sulfamide] | > 1000 nM | – | 100 to 1000 nM | – | 100 to 1000 nM | – | – | > 75% | – | – | – | – |
| COc1cc2ncnc(NCc3ccc(NS(N)(=O)=O)cc3)c2cc1OC [Example 34, N-(4-(((6,7-dimethoxyquinazolin-4-yl)amino)methyl)phenyl) sulfamidetrifluoroacetate] | < 100 nM | 100 to 1000 nM | < 100 nM | > 75% | < 100 nM | 17.4 | – | – | – | – | – | – |
| Cn1cnc2ncnc(N3CCC(CCNS(N)(=O)=O)CC3)c21 [Example 22, N-(2-(1-(7-methyl-7H-purin-6-yl)piperidin-4-yl)ethyl)sulfamide] | > 1000 nM | > 1000 nM | < 100 nM | – | < 100 nM | >115 | – | – | – | – | – | – |
| COc1cc2nc(N(C)C)nc(N3CCC(CCNS(N)(=O)=O)CC3)c2cc1OC [Example 3, N-(2-(1-(2-(dimethylamino)-6,7-dimethoxyquinazolin-4-yl)piperidin-4-yl)ethyl)sulfamide] | – | – | 100 to 1000 nM | 25 to 50% | – | – | – | – | 50 to 75% | – | – | – |
| COc1cc2ncnc(N3CCc4c(cccc4NS(N)(=O)=O)C3)c2cc1OC [Example 28, N-(2-(6,7-dimethoxyquinazolin-4-yl)-1,2,3,4-tetrahydroisoquinolin-5-yl)sulfamide] | 100 to 1000 nM | 100 to 1000 nM | < 100 nM | – | < 100 nM | 31.2 | – | – | – | – | – | – |
| COc1cc2nc(-c3cccnc3)nc(N3CCC(CCNS(N)(=O)=O)CC3)c2cc1OC [Example 5, N-(2-(1-(6,7-dimethoxy-2-(pyridin-3-yl)quinazolin-4-yl)piperidin-4-yl)ethyl)sulfamide] | – | – | – | – | – | >24 | 50 to 75% | – | 50 to 75% | > 1000 nM | 100 to 1000 nM | 100 to 1000 nM |
| COc1cc2nc(N)nc(N3CCC(CCNS(N)(=O)=O)CC3)c2cc1OC [Example 1, N-(2-(1-(2-amino-6,7-dimethoxyquinazolin-4-yl)piperidin-4-yl)ethyl)sulfamide] | 100 to 1000 nM | 100 to 1000 nM | < 100 nM | – | < 100 nM | 41.7 | – | – | – | – | – | – |
| COc1cc2ncnc(N3CCC4(CC3)CCN(S(N)(=O)=O)C4)c2cc1OC [Example 29, 8-(6,7-dimethoxyquinazolin-4-+yl)-2,8-diazaspiro[4.5]decane-2-sulfonamide] | < 100 nM | < 100 nM | < 100 nM | – | < 100 nM | 19.2 | – | > 75% | – | – | – | – |
| Cc1cncnc1N1CCC(CCNS(N)(=O)=O)CC1 [Example 17, N-(2-(1-(5-methylpyrimidin-4-yl)piperidin-4-yl)ethyl)sulfamide] | – | – | > 1000 nM | – | – | – | – | < 25% | < 25% | – | – | – |
| CCN(C)S(=O)(=O)NCCC1CCN(c2ncnc3cc(OC)c(OC)cc23)CC1 [Example 42, 2-(1-(6,7-dimethoxyquinazolin-4-yl)piperidin-4-yl)ethan-1-amino(N-ethyl-N-methyl)sulfonamide] | > 1000 nM | – | – | – | – | >96.1 | – | – | – | > 1000 nM | 100 to 1000 nM | 100 to 1000 nM |
| COc1cc2ncc(C#N)c(N3CCC(CCNS(N)(=O)=O)CC3)c2cc1OC [Example 20, N-(2-(1-(3-cyano-6,7-dimethoxyquinolin-4-yl)piperidin-4-yl)ethyl)sulfamide] | < 100 nM | 100 to 1000 nM | < 100 nM | > 75% | < 100 nM | 489 | – | – | – | – | – | – |
| NS(=O)(=O)NCCC1CCN(c2ncnc3nc[nH]c23)CC1 [Example 23, N-(2-(1-(9H-purin-6-yl)piperidin-4-yl)ethyl)sulfamide] | – | – | > 1000 nM | – | – | – | – | < 25% | < 25% | – | – | – |
| CNc1nc(N2CCC(CCNS(N)(=O)=O)CC2)c2cc(OC)c(OC)cc2n1 [Example 2, N-(2-(1-(6,7-dimethoxy-2-(methylamino)quinazolin-4-yl)piperidin-4-yl)ethyl)sulfamide] | – | > 1000 nM | < 100 nM | > 75% | – | >39.0 | – | – | > 75% | – | – | – |
